The Ki is a dissociation constant, usually derived from enzyme kinetics or from competition with a known ligand.

Experiment [1] deals with PIP5K1C and PIP4K2C. Particulars: for PIP5K1C and PIP4K2C; cited from earlier work.
Experiment [2] deals with DRG neurons. Particulars: cited from earlier work.
Experiment [3] addresses PIP5K1C (Homo sapiens, UniProt O60331). The experiment in a line: ATP competition studies using the mobility shift assay. It counts as biochemical. Conditions: read-out: average Ki; two independent ATP competition studies.
For experiment [4], the system named is pain hypersensitivity. Conditions: injected intrathecally, rodent models of chronic pain; listed as UNC3230; cited from earlier work.

Structures are written as SMILES. Entries after “also recorded” stand apart in the source; their conditions may differ.

Sequence of PIP5K1C (O60331 whole entry): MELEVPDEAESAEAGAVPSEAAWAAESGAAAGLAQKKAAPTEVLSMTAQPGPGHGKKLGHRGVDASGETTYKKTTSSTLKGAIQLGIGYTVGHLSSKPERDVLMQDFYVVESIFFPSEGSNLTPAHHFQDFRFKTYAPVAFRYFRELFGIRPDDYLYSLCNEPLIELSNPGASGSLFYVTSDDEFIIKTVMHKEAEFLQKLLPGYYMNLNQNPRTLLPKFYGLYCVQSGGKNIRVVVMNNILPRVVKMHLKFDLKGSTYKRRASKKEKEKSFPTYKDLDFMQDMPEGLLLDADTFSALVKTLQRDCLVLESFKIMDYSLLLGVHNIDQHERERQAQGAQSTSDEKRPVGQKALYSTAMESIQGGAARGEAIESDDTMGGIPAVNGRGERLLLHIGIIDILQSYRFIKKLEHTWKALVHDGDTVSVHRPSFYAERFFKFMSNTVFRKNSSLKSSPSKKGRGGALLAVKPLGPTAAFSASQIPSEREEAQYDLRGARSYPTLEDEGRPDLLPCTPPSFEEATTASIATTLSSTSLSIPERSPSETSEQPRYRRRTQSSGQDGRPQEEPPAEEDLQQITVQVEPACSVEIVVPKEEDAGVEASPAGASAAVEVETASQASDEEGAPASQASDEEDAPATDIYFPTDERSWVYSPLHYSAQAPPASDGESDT

For `NC(=O)c1nc(Nc2ccccc2)sc1NC(=O)C1CCCCC1` [Compound 1], the selectivity result in experiment [1] is given as “highly selective”. Further, the “effect on PIP2 in DRG neurons” value in experiment [2] was “reduced PIP2”. Also, the Ki in experiment [3] was determined as 23 nM. For the same compound, the “effect on pain hypersensitivity / nociceptive sensitization” value in experiment [4] is “reduce nociceptive sensitization; also recorded: attenuated pain hypersensitivity”.

The record behind these values is publication PMC4610143 (Journal of biomolecular screening, 2014).
